Reference: US20230339981A1, “KRAS G12D MODULATING COMPOUNDS” (priority 2022, published 2023)

Experiments:
GDP-loaded KRAS G12D = GDP-loaded KRAS G12D (Homo sapiens (Human), UniProt P01116, G12D); assay: KRAS G12D (GDP) biochemical assay (TR-FRET probe displacement); type: binding; conditions: 2 hours
Description: Example A. KRAS G12D (GDP) Biochemical Assay
Compounds were tested for binding to GDP-loaded KRAS G12D in a 384-well assay format using a TR-FRET probe displacement assay in buffer consisting of 50 mM Hepes (pH 7.4), 150 mM NaCl, 5 mM MgCl2 and 0.005% Tween-20. […] Compounds were serially diluted (1:3) in DMSO. The LabCyte ECHO Acoustic dispenser system was used to pre-spot the assay plates (384-well Non-Binding Surface plates, Corning, Catalog #3824) with 50 nL of compound. The compounds were pre-incubated with 5 μL of 2× final enzyme concentration for 30 minutes before adding 5 μL of 2× final concentration of Eu-streptavidin and TR-FRET probe (10 μL final reaction volume). The plates were incubated at room temperature for 2 hours before measuring TR-FRET ratio on the Envision plate reader. IC50 values were defined as the compound concentration that causes a 50% decrease in TR-FRET ratio and were calculated using a sigmoidal dose-response model to generate curve fits.

GP2D (KRAS G12D) cells = assay: 2D cell viability assay (CellTiter-Glo); type: cell-based; conditions: GP2d, 96 h, 4 days
Description: Example B. 2D Cell Viability Assay
Compounds were tested in a 384-well format for their ability to inhibit the viability of GP2D (KRAS G12D) cells in 2D assays. Compounds were serially diluted (1:3) in DMSO. The LabCyte ECHO Acoustic dispenser system was used to pre-spot assay plates with 200 nL of test molecule per well. 1000 cells/well (40 μL volume per well) in RPMI medium with 10% FBS, and Penicillin-Streptomycin-Glutamine were plated in pre-spotted 384-well plates (Greiner, Catalog #781076) on the BioTEK EL406 liquid dispenser with a 5 μL dispensing cassette (BioTek 7170011). The plates were incubated at 37° C., 5% CO2 for 4 days before addition of CellTiter-Glo (CTG) reagent and measurement of luminescence signal. EC50 values were defined as the compound concentration that causes a 50% decrease in luminescence signal and were calculated using a sigmoidal dose-response model to generate curve fits.

Sequence of GDP-loaded KRAS G12D (P01116-2 other isoform, or with tags, fused parts or gaps G12D): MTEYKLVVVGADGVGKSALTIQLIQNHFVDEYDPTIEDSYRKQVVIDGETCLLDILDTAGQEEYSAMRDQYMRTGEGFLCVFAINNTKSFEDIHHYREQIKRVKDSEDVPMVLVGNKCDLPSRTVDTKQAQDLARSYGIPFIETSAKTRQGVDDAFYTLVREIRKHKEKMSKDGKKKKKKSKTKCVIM

C#Cc1c(F)ccc2cc(O)cc(-c3nc4c5c(nc(OCC6(CN7CCC[C@@H](F)C7)CC6)nc5c3F)N3C[C@H]5CC[C@H](N5)[C@H]3CO4)c12 [Example 34, 5-ethynyl-6-fluoro-4-((5aS,6S,9R)-1-fluoro-12-((1-(((R)-3-fluoropiperidin-1-yl)methyl)cyclopropyl)methoxy)-5a,6,7,8,9,10-hexahydro-5H-4-oxa-3,10a,11,13,14-pentaaza-6,9-methanonaphtho[1,8-ab]heptalen-2-yl)naphthalen-2-ol]
IC50 (GDP-loaded KRAS G12D): 0.2 nM
EC50 (GP2D (KRAS G12D) cells): 2 nM

C#Cc1c(F)ccc2cccc(-c3nc4c5c(nc(OC[C@@]67CCCN6C[C@H](OC(C(F)(F)F)(C(F)(F)F)C(F)(F)F)C7)nc5c3F)N3C[C@H]5CC[C@H](N5)[C@H]3CC4)c12 [Example 130, (5aR,6S,9R)-2-(8-ethynyl-7-fluoronaphthalen-1-yl)-1-fluoro-12-((trans-2-((1,1,1,3,3,3-hexafluoro-2-(trifluoromethyl)propan-2-yl)oxy)tetrahydro-1H-pyrrolizin-7a(5H)-yl)methoxy)-4,5,5a,6,7,8,9,10-octahydro-3,10a,11,13,14-pentaaza-6,9-methanonaphtho[1,8-ab]heptalene]
IC50 (GDP-loaded KRAS G12D): 100 nM
EC50 (GP2D (KRAS G12D) cells): 100 nM

C#Cc1c(F)ccc2cc(O)cc(-c3nc4c5c(nc(OCC6(CN7CCC(C(F)(F)F)CC7)CC6)nc5c3F)N3C[C@H]5CC[C@H](N5)[C@H]3CC4)c12 [Example 69, 5-ethynyl-6-fluoro-4-((5aR,6S,9R)-1-fluoro-12-((1-((4-(trifluoromethyl)piperidin-1-yl)methyl)cyclopropyl)methoxy)-4,5,5a,6,7,8,9,10-octahydro-3,10a,11,13,14-pentaaza-6,9-methanonaphtho[1,8-ab]heptalen-2-yl)naphthalen-2-ol]
IC50 (GDP-loaded KRAS G12D): 0.1 nM
EC50 (GP2D (KRAS G12D) cells): 0.6 nM

C#Cc1c(F)ccc2cccc(-c3nc4c5c(nc(OCC6(CN7CCC(OC(F)(F)F)CC7)CC6)nc5c3F)N3C[C@H]5CC[C@H](N5)[C@@H]3[C@@H](C)C4)c12 [Example 88, (5S,5aS,6S,9R)-2-(8-ethynyl-7-fluoronaphthalen-1-yl)-1-fluoro-5-methyl-12-((1-((4-(trifluoromethoxy)piperidin-1-yl)methyl)cyclopropyl)methoxy)-4,5,5a,6,7,8,9,10-octahydro-3,10a,11,13,14-pentaaza-6,9-methanonaphtho[1,8-ab]heptalene]
IC50 (GDP-loaded KRAS G12D): 36.5 nM
EC50 (GP2D (KRAS G12D) cells): 255 nM

C#Cc1c(F)ccc2cccc(-c3nc4c5c(nc(OC[C@@]67CCCN6[C@H](COc6ncncc6C(F)F)CC7)nc5c3F)N3C[C@H]5CC[C@H](N5)[C@H]3CCC4)c12 [Example 206, (6aR,7S,10R)-13-(((3S,7aS)-3-(((5-(difluoromethyl)pyrimidin-4-yl)oxy)methyl)tetrahydro-1H-pyrrolizin-7a(5H)-yl)methoxy)-2-(8-ethynyl-7-fluoronaphthalen-1-yl)-1-fluoro-5,6,6a,7,8,9,10,11-octahydro-4H-3,11a,12,14,15-pentaaza-7,10-methanocyclohepta[4,5]cycloocta[1,2,3-de]naphthalene]
IC50 (GDP-loaded KRAS G12D): 0.04 nM
EC50 (GP2D (KRAS G12D) cells): 1.6 nM

C#Cc1c(F)ccc2cccc(-c3nc4c5c(nc(OC[C@]67CCCN6C[C@@H](OC(F)(F)F)C7)nc5c3F)N3C[C@H]5CC[C@H](N5)[C@H]3CC4)c12 (stereo in doubt) [Example 142, (5aR,6S,9R)-2-(8-ethynyl-7-fluoronaphthalen-1-yl)-1-fluoro-12-((trans-2-(trifluoromethoxy)tetrahydro-1H-pyrrolizin-7a(5H)-yl)methoxy)-4,5,5a,6,7,8,9,10-octahydro-3,10a,11,13,14-pentaaza-6,9-methanonaphtho[1,8-ab]heptalene]
IC50 (GDP-loaded KRAS G12D): 3.6 nM
EC50 (GP2D (KRAS G12D) cells): 94.8 nM

C#Cc1c(F)ccc2cccc(-c3nc4c5c(nc(OC[C@@]67CCCN6C[C@H](F)C7)nc5c3F)N3C[C@H]5CC[C@H](N5)[C@@H]3[C@@H](C)C4)c12 [Example 84, (5S,5aS,6S,9R)-2-(8-ethynyl-7-fluoronaphthalen-1-yl)-1-fluoro-12-(((2R,7aS)-2-fluorotetrahydro-1H-pyrrolizin-7a(5H)-yl)methoxy)-5-methyl-4,5,5a,6,7,8,9,10-octahydro-3,10a,11,13,14-pentaaza-6,9-methanonaphtho[1,8-ab]heptalene]
IC50 (GDP-loaded KRAS G12D): 3.9 nM
EC50 (GP2D (KRAS G12D) cells): 27.7 nM

C#Cc1c(F)ccc2cc(O)cc(-c3nc4c5c(nc(OC[C@@]67CCCN6C[C@H](OC(C(F)(F)F)(C(F)(F)F)C(F)(F)F)CC7)nc5c3F)N3C[C@H]5CC[C@H](N5)[C@H]3CO4)c12 [Example 56, 5-ethynyl-6-fluoro-4-((5aS,6S,9R)-1-fluoro-12-(((6R,8aS)-6-((1,1,1,3,3,3-hexafluoro-2-(trifluoromethyl)propan-2-yl)oxy)hexahydroindolizine-8a(1H)-yl)methoxy)-5a,6,7,8,9,10-hexahydro-5H-4-oxa-3,10a,11,13,14-pentaaza-6,9-methanonaphtho[1,8-ab]heptalen-2-yl)naphthalen-2-ol]
IC50 (GDP-loaded KRAS G12D): 13 nM
EC50 (GP2D (KRAS G12D) cells): 50 nM

C#Cc1c(F)ccc2cc(O)cc(-c3nc4c5c(nc(OC[C@@]67CCCN6[C@H](COC(=O)N(C)c6cccc(S(F)(F)(F)(F)F)c6)CC7)nc5c3F)N3C[C@H]5CC[C@H](N5)[C@H]3CO4)c12 [Example 51, ((3S,7aS)-7a-((((5aS,6S,9R)-2-(8-ethynyl-7-fluoro-3-hydroxynaphthalen-1-yl)-1-fluoro-5a,6,7,8,9,10-hexahydro-5H-4-oxa-3,10a,11,13,14-pentaaza-6,9-methanonaphtho[1,8-ab]heptalen-12-yl)oxy)methyl)hexahydro-1H-pyrrolizin-3-yl)methyl methyl(3-(pentafluoro-λ^6-sulfaneyl)phenyl)carbamate]
IC50 (GDP-loaded KRAS G12D): 2 nM
EC50 (GP2D (KRAS G12D) cells): 98 nM

C#Cc1c(F)ccc2cccc(-c3nc4c5c(nc(OC[C@@]67CCCN6[C@H](COc6cccc(S(F)(F)(F)(F)F)c6)CC7)nc5c3F)N3C[C@H]5CC[C@H](N5)[C@@H]3[C@@H](C)C4)c12 [Example 105, (5S,5aS,6S,9R)-2-(8-ethynyl-7-fluoronaphthalen-1-yl)-1-fluoro-5-methyl-12-(((3S,7aS)-3-((3-(pentafluoro-λ^6-sulfaneyl)phenoxy)methyl)tetrahydro-1H-pyrrolizin-7a(5H)-yl)methoxy)-4,5,5a,6,7,8,9,10-octahydro-3,10a,11,13,14-pentaaza-6,9-methanonaphtho[1,8-ab]heptalene]
IC50 (GDP-loaded KRAS G12D): 5.3 nM
EC50 (GP2D (KRAS G12D) cells): 435 nM

C#Cc1c(F)ccc2cc(O)cc(-c3nc4c5c(nc(OC[Si](C)(C)CN6CCOCC6)nc5c3F)N3C[C@H]5CC[C@H](N5)[C@H]3CO4)c12 [Example 29, 4-((5aS,6S,9R)-12-((dimethyl(morpholinomethyl)silyl)methoxy)-1-fluoro-5a,6,7,8,9,10-hexahydro-5H-4-oxa-3,10a,11,13,14-pentaaza-6,9-methanonaphtho[1,8-ab]heptalen-2-yl)-5-ethynyl-6-fluoronaphthalen-2-ol]
EC50 (GP2D (KRAS G12D) cells): > 1000 nM

Fc1ccc2cccc(-c3nc4c5c(nc(OC[C@@]67CCCN6C[C@H](F)C7)nc5c3F)N3C[C@H]5CC[C@H](N5)[C@H]3CC4)c2c1OC(F)(F)F [Example 65, (5aR,6S,9R)-1-fluoro-2-(7-fluoro-8-(trifluoromethoxy)naphthalen-1-yl)-12-(((2R,7aS)-2-fluorotetrahydro-1H-pyrrolizin-7a(5H)-yl)methoxy)-4,5,5a,6,7,8,9,10-octahydro-3,10a,11,13,14-pentaaza-6,9-methanonaphtho[1,8-ab]heptalene]
EC50 (GP2D (KRAS G12D) cells): 450 nM

C#Cc1c(F)ccc2cccc(-c3nc4c5c(nc(OC[C@@]67CCCN6C[C@@H](OC(F)(F)F)C7)nc5c3F)N3C[C@H]5CC[C@H](N5)[C@H]3CC4)c12 (stereo in doubt) [Example 140, (5aR,6S,9R)-2-(8-ethynyl-7-fluoronaphthalen-1-yl)-1-fluoro-12-((cis-2-(trifluoromethoxy)tetrahydro-1H-pyrrolizin-7a(5H)-yl)methoxy)-4,5,5a,6,7,8,9,10-octahydro-3,10a,11,13,14-pentaaza-6,9-methanonaphtho[1,8-ab]heptalene]
EC50 (GP2D (KRAS G12D) cells): 75.9 nM

C#Cc1c(F)ccc2cc(O)cc(-c3nc4c5c(nc(OC[C@@]67CCCN6C[C@H](F)C7)nc5c3F)N3C[C@H]5CC[C@H](N5)[C@@H]3CC4)c12 [Example 133, 5-ethynyl-6-fluoro-4-((5aS,6S,9R)-1-fluoro-12-(((2R,7aS)-2-fluorotetrahydro-1H-pyrrolizin-7a(5H)-yl)methoxy)-4,5,5a,6,7,8,9,10-octahydro-3,10a,11,13,14-pentaaza-6,9-methanonaphtho[1,8-ab]heptalen-2-yl)naphthalen-2-ol]
EC50 (GP2D (KRAS G12D) cells): 1.1 nM
